Laboratory results taken from PubChem BioAssay (NCI).
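Five compound concentrations were applied to cells in 96-well plates for 48 hours; endpoints were derived by simple linear interpolation of the resulting dose-response curve. At the TGI there is no net growth.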

Test system: TK-10 renal
Assay: NCI-60 cell line screen, 48 h

Point of comparison: `C=C1C(=O)O[C@@H]2O[C@@]3(C)CC[C@H]4[C@H](C)CC[C@@H]1[C@@]24O3`, TGI 32.7 µM. Against it:
- O=C1C=CC(=O)c2c1ccc1c3ccccc3n(CCCCCCCCn3c4ccccc4c4ccc5c(c43)C(=O)C=CC5=O)c21 — higher, > 100 µM
- N#CC[C@@H](O)COc1ccccc1 — higher, > 100 µM
- c1cc(-c2ccc(-c3ccc(-c4ccc(-c5cccc6nsnc56)[nH]4)c4nsnc34)[nH]2)c2nsnc2c1 — higher, > 100 µM

Test system: LOX IMVI melanoma
Assay: NCI-60 cell line screen, 48 h

Point of comparison: `C=C1C(=O)O[C@@H]2O[C@@]3(C)CC[C@H]4[C@H](C)CC[C@@H]1[C@@]24O3`, TGI 40.1 µM. Against it:
- O=C1C=CC(=O)c2c1ccc1c3ccccc3n(CCCCCCCCn3c4ccccc4c4ccc5c(c43)C(=O)C=CC5=O)c21 — higher, > 100 µM
- N#CC[C@@H](O)COc1ccccc1 — higher, > 100 µM
- c1cc(-c2ccc(-c3ccc(-c4ccc(-c5cccc6nsnc56)[nH]4)c4nsnc34)[nH]2)c2nsnc2c1 — higher, > 100 µM

Test system: SK-MEL-2 melanoma
Assay: NCI-60 cell line screen, 48 h

Point of comparison: `C=C1C(=O)O[C@@H]2O[C@@]3(C)CC[C@H]4[C@H](C)CC[C@@H]1[C@@]24O3`, TGI 46.9 µM. Against it:
- O=C1C=CC(=O)c2c1ccc1c3ccccc3n(CCCCCCCCn3c4ccccc4c4ccc5c(c43)C(=O)C=CC5=O)c21 — higher, > 100 µM
- N#CC[C@@H](O)COc1ccccc1 — higher, > 100 µM
- c1cc(-c2ccc(-c3ccc(-c4ccc(-c5cccc6nsnc56)[nH]4)c4nsnc34)[nH]2)c2nsnc2c1 — higher, > 100 µM

Test system: SF-268 CNS
Assay: NCI-60 cell line screen, 48 h

`C[C@]12CC[C@H](O)CC1=CC[C@@H]1C2CC[C@]2(C)c3n[nH]nc3CC12` (stereo partly drawn) and `C=C1C(=O)O[C@@H]2O[C@@]3(C)CC[C@H]4[C@H](C)CC[C@@H]1[C@@]24O3` cannot be ordered by TGI: over 100 µM for the first, over 100 µM for the second.

`O=C1C=CC(=O)c2c1ccc1c3ccccc3n(CCCCCCCCn3c4ccccc4c4ccc5c(c43)C(=O)C=CC5=O)c21` and `c1cc(-c2ccc(-c3ccc(-c4ccc(-c5cccc6nsnc56)[nH]4)c4nsnc34)[nH]2)c2nsnc2c1` cannot be ordered by TGI: over 100 µM for the first, over 100 µM for the second.

For `N#CC[C@@H](O)COc1ccccc1`, the TGI was over 100 µM.

Test system: KM12 colon
Assay: NCI-60 cell line screen, 48 h

Point of comparison: `C=C1C(=O)O[C@@H]2O[C@@]3(C)CC[C@H]4[C@H](C)CC[C@@H]1[C@@]24O3`, TGI 21.3 µM. Against it:
- C[C@]12CC[C@H](O)CC1=CC[C@@H]1C2CC[C@]2(C)c3n[nH]nc3CC12 (stereo partly drawn) — higher, > 100 µM
- O=C1C=CC(=O)c2c1ccc1c3ccccc3n(CCCCCCCCn3c4ccccc4c4ccc5c(c43)C(=O)C=CC5=O)c21 — higher, > 100 µM
- N#CC[C@@H](O)COc1ccccc1 — higher, > 100 µM
- c1cc(-c2ccc(-c3ccc(-c4ccc(-c5cccc6nsnc56)[nH]4)c4nsnc34)[nH]2)c2nsnc2c1 — higher, > 100 µM

Test system: RPMI-8226 leukemia
Assay: NCI-60 cell line screen, 48 h

Point of comparison: `C=C1C(=O)O[C@@H]2O[C@@]3(C)CC[C@H]4[C@H](C)CC[C@@H]1[C@@]24O3`, TGI 36.8 µM. Against it:
- O=C1C=CC(=O)c2c1ccc1c3ccccc3n(CCCCCCCCn3c4ccccc4c4ccc5c(c43)C(=O)C=CC5=O)c21 — higher, > 100 µM
- N#CC[C@@H](O)COc1ccccc1 — higher, > 100 µM
- c1cc(-c2ccc(-c3ccc(-c4ccc(-c5cccc6nsnc56)[nH]4)c4nsnc34)[nH]2)c2nsnc2c1 — higher, > 100 µM

Test system: SW-620 colon
Assay: NCI-60 cell line screen, 48 h

`C[C@]12CC[C@H](O)CC1=CC[C@@H]1C2CC[C@]2(C)c3n[nH]nc3CC12` (stereo partly drawn) and `C=C1C(=O)O[C@@H]2O[C@@]3(C)CC[C@H]4[C@H](C)CC[C@@H]1[C@@]24O3` cannot be ordered by TGI: over 100 µM for the first, over 100 µM for the second.

`O=C1C=CC(=O)c2c1ccc1c3ccccc3n(CCCCCCCCn3c4ccccc4c4ccc5c(c43)C(=O)C=CC5=O)c21` and `c1cc(-c2ccc(-c3ccc(-c4ccc(-c5cccc6nsnc56)[nH]4)c4nsnc34)[nH]2)c2nsnc2c1` cannot be ordered by TGI: over 100 µM for the first, over 100 µM for the second.

Work on `N#CC[C@@H](O)COc1ccccc1` yielded a TGI of over 100 µM.

Test system: SK-MEL-5 melanoma
Assay: NCI-60 cell line screen, 48 h

`C[C@]12CC[C@H](O)CC1=CC[C@@H]1C2CC[C@]2(C)c3n[nH]nc3CC12` (stereo partly drawn) and `C=C1C(=O)O[C@@H]2O[C@@]3(C)CC[C@H]4[C@H](C)CC[C@@H]1[C@@]24O3` cannot be ordered by TGI: over 100 µM for the first, over 100 µM for the second.

`O=C1C=CC(=O)c2c1ccc1c3ccccc3n(CCCCCCCCn3c4ccccc4c4ccc5c(c43)C(=O)C=CC5=O)c21` and `c1cc(-c2ccc(-c3ccc(-c4ccc(-c5cccc6nsnc56)[nH]4)c4nsnc34)[nH]2)c2nsnc2c1` cannot be ordered by TGI: over 100 µM for the first, over 100 µM for the second.

Compound `N#CC[C@@H](O)COc1ccccc1` has a TGI of over 100 µM.

Test system: UACC-62 melanoma
Assay: NCI-60 cell line screen, 48 h

Point of comparison: `C=C1C(=O)O[C@@H]2O[C@@]3(C)CC[C@H]4[C@H](C)CC[C@@H]1[C@@]24O3`, TGI 29.7 µM. Against it:
- C[C@]12CC[C@H](O)CC1=CC[C@@H]1C2CC[C@]2(C)c3n[nH]nc3CC12 (stereo partly drawn) — higher, > 100 µM
- O=C1C=CC(=O)c2c1ccc1c3ccccc3n(CCCCCCCCn3c4ccccc4c4ccc5c(c43)C(=O)C=CC5=O)c21 — higher, > 100 µM
- N#CC[C@@H](O)COc1ccccc1 — higher, > 100 µM
- c1cc(-c2ccc(-c3ccc(-c4ccc(-c5cccc6nsnc56)[nH]4)c4nsnc34)[nH]2)c2nsnc2c1 — higher, > 100 µM

Test system: UACC-257 melanoma
Assay: NCI-60 cell line screen, 48 h

Point of comparison: `C=C1C(=O)O[C@@H]2O[C@@]3(C)CC[C@H]4[C@H](C)CC[C@@H]1[C@@]24O3`, TGI 47.9 µM. Against it:
- C[C@]12CC[C@H](O)CC1=CC[C@@H]1C2CC[C@]2(C)c3n[nH]nc3CC12 (stereo partly drawn) — higher, > 100 µM
- O=C1C=CC(=O)c2c1ccc1c3ccccc3n(CCCCCCCCn3c4ccccc4c4ccc5c(c43)C(=O)C=CC5=O)c21 — higher, > 100 µM
- N#CC[C@@H](O)COc1ccccc1 — higher, > 100 µM

Test system: EKVX NSCLC
Assay: NCI-60 cell line screen, 48 h

Point of comparison: `C=C1C(=O)O[C@@H]2O[C@@]3(C)CC[C@H]4[C@H](C)CC[C@@H]1[C@@]24O3`, TGI 48.7 µM. Against it:
- C[C@]12CC[C@H](O)CC1=CC[C@@H]1C2CC[C@]2(C)c3n[nH]nc3CC12 (stereo partly drawn) — higher, > 100 µM
- O=C1C=CC(=O)c2c1ccc1c3ccccc3n(CCCCCCCCn3c4ccccc4c4ccc5c(c43)C(=O)C=CC5=O)c21 — higher, > 100 µM
- N#CC[C@@H](O)COc1ccccc1 — higher, > 100 µM
- c1cc(-c2ccc(-c3ccc(-c4ccc(-c5cccc6nsnc56)[nH]4)c4nsnc34)[nH]2)c2nsnc2c1 — higher, > 100 µM

Test system: K-562 leukemia
Assay: NCI-60 cell line screen, 48 h

`C[C@]12CC[C@H](O)CC1=CC[C@@H]1C2CC[C@]2(C)c3n[nH]nc3CC12` (stereo partly drawn) and `C=C1C(=O)O[C@@H]2O[C@@]3(C)CC[C@H]4[C@H](C)CC[C@@H]1[C@@]24O3` cannot be ordered by TGI: over 100 µM for the first, over 100 µM for the second.

`O=C1C=CC(=O)c2c1ccc1c3ccccc3n(CCCCCCCCn3c4ccccc4c4ccc5c(c43)C(=O)C=CC5=O)c21` and `c1cc(-c2ccc(-c3ccc(-c4ccc(-c5cccc6nsnc56)[nH]4)c4nsnc34)[nH]2)c2nsnc2c1` cannot be ordered by TGI: over 100 µM for the first, over 100 µM for the second.

Compound `N#CC[C@@H](O)COc1ccccc1` has a TGI of over 100 µM.

Test system: HCC-2998 colon
Assay: NCI-60 cell line screen, 48 h

Point of comparison: `C=C1C(=O)O[C@@H]2O[C@@]3(C)CC[C@H]4[C@H](C)CC[C@@H]1[C@@]24O3`, TGI 41 µM. Against it:
- C[C@]12CC[C@H](O)CC1=CC[C@@H]1C2CC[C@]2(C)c3n[nH]nc3CC12 (stereo partly drawn) — higher, > 100 µM
- O=C1C=CC(=O)c2c1ccc1c3ccccc3n(CCCCCCCCn3c4ccccc4c4ccc5c(c43)C(=O)C=CC5=O)c21 — higher, > 100 µM
- N#CC[C@@H](O)COc1ccccc1 — higher, > 100 µM
- c1cc(-c2ccc(-c3ccc(-c4ccc(-c5cccc6nsnc56)[nH]4)c4nsnc34)[nH]2)c2nsnc2c1 — higher, > 100 µM

Test system: SF-539 CNS
Assay: NCI-60 cell line screen, 48 h

Point of comparison: `C=C1C(=O)O[C@@H]2O[C@@]3(C)CC[C@H]4[C@H](C)CC[C@@H]1[C@@]24O3`, TGI 32.2 µM. Against it:
- C[C@]12CC[C@H](O)CC1=CC[C@@H]1C2CC[C@]2(C)c3n[nH]nc3CC12 (stereo partly drawn) — higher, > 100 µM
- O=C1C=CC(=O)c2c1ccc1c3ccccc3n(CCCCCCCCn3c4ccccc4c4ccc5c(c43)C(=O)C=CC5=O)c21 — higher, > 100 µM
- N#CC[C@@H](O)COc1ccccc1 — higher, > 100 µM

Test system: HCT-15 colon
Assay: NCI-60 cell line screen, 48 h

Point of comparison: `C=C1C(=O)O[C@@H]2O[C@@]3(C)CC[C@H]4[C@H](C)CC[C@@H]1[C@@]24O3`, TGI 27.6 µM. Against it:
- O=C1C=CC(=O)c2c1ccc1c3ccccc3n(CCCCCCCCn3c4ccccc4c4ccc5c(c43)C(=O)C=CC5=O)c21 — higher, > 100 µM
- N#CC[C@@H](O)COc1ccccc1 — higher, > 100 µM
- c1cc(-c2ccc(-c3ccc(-c4ccc(-c5cccc6nsnc56)[nH]4)c4nsnc34)[nH]2)c2nsnc2c1 — higher, > 100 µM
